IC50 and AC50 data for 10 compounds are collected here from patent publication US20240366612A1, “COMPOUNDS AND METHODS FOR MODULATING NUCLEIC ACID SPLICING” (REMIX THERAPEUTICS INC., priority 2021, published 2024).

Format in all cases: cell-based
One experiment relates to SMN2 CJ mRNA. The experiment can be described thus: Gene panel canonical junction qPCR assay, SMN2. Particulars: Homo sapiens, larger gene panel, read-out: SMN2 IC50 (decrease in CJ mRNA levels). The method, then: (§1) Compounds described herein were used to modulate RNA transcript abundance in cells. The expression of a target mRNA was measured by detecting the formation of an exon-exon junction in the canonical transcript (CJ). A compound mediated exon-inclusion event was detected by observing an increase in formation of a new junction with an alternative exon (AJ). Real-time qPCR assays were used to detect these splicing switches and interrogate the potency of various compounds towards different target genes. A high-throughput real time quantitative PCR (RT-qPCR) assay was developed to measure these two isoforms of the mRNA (CJ and AJ) for exemplary genes, such as HTT, SMN2, and MYB, together with a control housekeeping gene, GAPDH or GUSB or PPIA, used for normalization. Briefly, the A673 or K562 cell line was treated with various compounds described herein (e.g., compounds of Formula (I)). After treatment, the levels of the HTT, MYB, or SMN2 mRNA targets were determined from each sample of cell lysate by cDNA synthesis followed by qPCR.
(§2) The A673 cell line was cultured in DMEM with 10% FBS. Cells were diluted with full growth media and plated in a 96-well plate (15,000 cells in 100 ul media per well). The plate was incubated at 37° C. with 5% CO2 for 24 hours to allow cells to adhere. An 11-point 3-fold serial dilution of the compounds was made in DMSO then diluted in media in an intermediate plate. Compounds were transferred from the intermediate plate to the cell plate with the top dose at a final concentration of 10 uM in the well. Final DMSO concentration was kept at or below 0.25%. The cell plate was returned to the incubator at 37° C. with 5% CO2 for an additional 24 hours.
(§3) The K562 cell line was cultured in IMDM with 10% FBS. For K562, cells were diluted with full growth media and plated in either a 96-well plate (50,000 cells in 50 uL media per well) or a 384-well plate (8,000-40,000 cells in 45 uL media per well). An 11-point 3-fold serial dilution of the compounds were made in DMSO then diluted in media in an intermediate plate. Compound was transferred from the intermediate plate to the cell plate with the top dose at a final concentration of 10 uM in the well. Final DMSO concentration was kept at or below 0.25%. Final volume was 100 uL for 96-well plate and 50 uL for 384-well plate. The cell plate was then placed in an incubator at 37° C. with 5% CO2 for 24 hours.
(§4) The data analysis was performed by first determining the ΔCt vs the housekeeper gene. This ΔCt was then normalized against the DMSO control (ΔΔCt) and converted to RQ (relative quantification) using the 2^(−ΔΔCt) equation. The RQ were then converted to a percentage response by arbitrarily setting an assay window of 3.5 and 4.0 ΔCt for HTT-CJ and MYB-CJ respectively and an assay window of 9 and 3 ΔCt for HTT-AJ and MYB-AJ in 96 well format (50,000 K562 cells/well and 15,000 A673 cells per well) and an assay window of 3 and 4 ΔCt for HTT-CJ and MYB-CJ respectively and an assay window of 5 and 3 ΔCt for HTT-AJ and MYB-AJ respectively in 384 well format (8,000 K562 cells/well example). […] The percentage response was then fitted to the 4 parametric logistic equation to evaluate the concentration dependence of compound treatment. The increase in AJ mRNA is reported as AC50 (compound concentration having […] in AJ increase) while the decrease in CJ mRNA levels is reported as IC50 (compound concentration having 50% response in CJ decrease).
(§5) Additional studies were carried out for a larger panel of genes using the protocol provided above. The junction between flanking upstream and downstream exons was used to design canonical junction qPCR assays. At least one of the forward primer, reverse primer or the CY5-labeled 5′ nuclease probe (with 3′ quencher such as ZEN/Iowa Black FQ) was designed to overlap with the exon junction to capture the CJ mRNA transcript. […]
In general terms: Quantitative PCR measures a nucleic acid by following its amplification.

Another experiment has as its system Target C CJ mRNA. The experiment can be described thus: Gene panel canonical junction qPCR assay, Target C. Particulars: Homo sapiens, larger gene panel, read-out: Target C IC50 (decrease in CJ mRNA levels). The method, then:
as §1, §2, §3, §4, §5

For the next experiment, the system named is MYB mRNA. The experiment can be described thus: Splicing RT-qPCR assay, MYB canonical (CJ) and alternative (AJ) junction mRNA. Particulars: Homo sapiens, A673 or K562 cells, 24 hours treatment; for IC50: decrease in CJ mRNA; for AC50: increase in AJ mRNA. As to the method: as §1
(§6) • Cells-to-CT 1-step kit: ThermoFisher A25602, Cells-to-CT lysis reagent: ThermoFisher 4391851C, TaqMan™ Fast Virus 1-Step Master Mix: ThermoFisher 4444436 • GAPDH: VIC-PL, ThermoFisher 4326317E (Assay: Hs99999905_ml)—used for K562/suspension cell lines • GUSB: VIC-PL, ThermoFisher 4326320E (Assay: Hs99999908_ml)—used for K562/suspension cell lines • PPIA: VIC-PL, ThermoFisher 4326316E (Assay: Hs99999904_ml)—used for A673/adherent cell lines
as §2, §3
(§7) The cells were then gently washed with 50 uL-100 uL cold PBS before proceeding to addition of lysis buffer. 30 uL-50 μL of room temperature lysis buffer with DNAse I (and optionally RNAsin) was added to each well. Cells were shaken/mixed thoroughly at room temperature for 5-10 minutes for lysis to take place and then 3 uL-5 μL of room temperature stop solution was added and wells were shaken/mixed again. After 2-5 minutes, the cell lysate plate was transferred to ice for RT-qPCR reaction setup. The lysates could also be frozen at −80° C. for later use.
(§8) In some cases, a direct lysis buffer was used. An appropriate volume of 3×lysis buffer (10 mM Tris, 150 mM NaCl, 1.5%-2.5% Igepal and 0.1-1 U/uL RNAsin, pH 7.4) was directly added to either K562 or A673 cells in media and mixed by pipetting 3 times. The plates were then incubated at room temperature with shaking/rocking for 20-50 minutes to allow for lysis to take place. After this time, the cell lysate plate was transferred to ice to set up for the RT-qPCR reactions. The lysates could also be frozen at −80° C. for later use. […]

Another experiment concerns HTT CJ mRNA. In words: Gene panel canonical junction qPCR assay, HTT. Particulars: Homo sapiens, larger gene panel, read-out: HTT IC50 (decrease in CJ mRNA levels). As to the method:
as §1, §2, §3, §4, §5

A further experiment deals with HTT mRNA. The experiment can be described thus: Splicing RT-qPCR assay, HTT canonical (CJ) and alternative (AJ) junction mRNA. Particulars: Homo sapiens, A673 or K562 cells, 24 hours treatment; for IC50: decrease in CJ mRNA; for AC50: increase in AJ mRNA. As to the method: as §1, §6, §2, §3, §7, §8

Consider `Cc1cn2cc(-c3cn4c(=O)cc(N5CCNC6(CC6)C5)nc4s3)cc(F)c2n1` [Compound 208, 2-(8-fluoro-2-methylimidazo[1,2-a]pyridin-6-yl)-7-(4,7-diazaspiro[2.5]octan-7-yl)-5H-thiazolo[3,2-a]pyrimidin-5-one], for which the IC50 in the experiment on SMN2 CJ mRNA, in the experiment with Target C CJ mRNA, with MYB mRNA, in the experiment on HTT CJ mRNA and in the experiment with HTT mRNA was 1 to 10 µM in each case. Further, the half-maximal activity concentration (AC50) with MYB mRNA and in the experiment on HTT mRNA was 1 to 10 µM throughout.
With `Cc1cn2cc(-c3cc(=O)n4nc(N5CCNC6(CC6)C5)sc4n3)cc(F)c2n1` [Compound 209, 7-(8-fluoro-2-methylimidazo[1,2-a]pyridin-6-yl)-2-(4,7-diazaspiro[2.5]octan-7-yl)-5H-[1,3,4]thiadiazolo[3,2-a]pyrimidin-5-one], the IC50 with SMN2 CJ mRNA, in the experiment on Target C CJ mRNA, in the experiment on MYB mRNA, in the experiment with HTT CJ mRNA and with HTT mRNA was 1 to 10 µM throughout. Also, the AC50 with MYB mRNA and in the experiment with HTT mRNA was 1 to 10 µM in each case.
Take `Cc1cc(-c2nn3c(=O)cc(N4CCN(C)CC4)nc3s2)cc2cn(C)nc12` [Compound 210, 2-(2,7-dimethyl-2H-indazol-5-yl)-7-(4-methylpiperazin-1-yl)-5H-[1,3,4]thiadiazolo[3,2-a]pyrimidin-5-one]: the IC50 with SMN2 CJ mRNA, in the experiment with Target C CJ mRNA, in the experiment on MYB mRNA, in the experiment on HTT CJ mRNA and in the experiment on HTT mRNA was 1 to 10 µM throughout. Moreover, the AC50 in the experiment with MYB mRNA and with HTT mRNA was 1 to 10 µM in each case.
For the compound `Cc1cn2nc(-c3cc(=O)n4cc(N5CCNC6(CC6)C5)sc4n3)cc(C)c2n1` [Compound 211, 7-(2,8-dimethylimidazo[1,2-b]pyridazin-6-yl)-2-(4,7-diazaspiro[2.5]octan-7-yl)-5H-thiazolo[3,2-a]pyrimidin-5-one], the IC50 with SMN2 CJ mRNA was in the range of 0.1 to 1 µM; in the experiment on Target C CJ mRNA, 1 to 10 µM; in the experiment with MYB mRNA it was 1 to 10 µM; in the experiment with HTT CJ mRNA, 1 to 10 µM; in the experiment on HTT mRNA, 1 to 10 µM. In addition, the AC50 in the experiment on MYB mRNA was 0.1 to 1 µM; with HTT mRNA, 1 to 10 µM.
For the compound `Cc1cn2nc(-c3cn4c(=O)cc(N5CCNC6(CC6)C5)nc4s3)cc(C)c2n1` [Compound 212, 2-(2,8-dimethylimidazo[1,2-b]pyridazin-6-yl)-7-(4,7-diazaspiro[2.5]octan-7-yl)-5H-thiazolo[3,2-a]pyrimidin-5-one], the IC50 with SMN2 CJ mRNA, with Target C CJ mRNA, in the experiment on MYB mRNA, in the experiment with HTT CJ mRNA and in the experiment on HTT mRNA was 1 to 10 µM throughout. The AC50 in the experiment on MYB mRNA and in the experiment on HTT mRNA was 1 to 10 µM each time.
As to `Cc1cn2cc(-c3cn4c(=O)cc(N5CCNCC5)nc4s3)cc(F)c2n1` [Compound 213, 2-(8-fluoro-2-methylimidazo[1,2-a]pyridin-6-yl)-7-(piperazin-1-yl)-5H-thiazolo[3,2-a]pyrimidin-5-one], the IC50 in the experiment with SMN2 CJ mRNA was 1 to 10 µM; in the experiment on Target C CJ mRNA, over 10 µM; in the experiment on MYB mRNA it was over 10 µM; with HTT CJ mRNA it was over 10 µM; with HTT mRNA, over 10 µM. Further, the AC50 in the experiment on MYB mRNA and in the experiment on HTT mRNA was over 10 µM each time.
With `Cc1cn2cc(-c3nn4c(=O)cc(N5CCNCC5)nc4s3)cc(F)c2n1` [Compound 214, 2-(8-fluoro-2-methylimidazo[1,2-a]pyridin-6-yl)-7-(piperazin-1-yl)-5H-[1,3,4]thiadiazolo[3,2-a]pyrimidin-5-one], the IC50 is 0.1 to 1 µM with SMN2 CJ mRNA; over 10 µM with Target C CJ mRNA; 1 to 10 µM in the experiment with MYB mRNA; 1 to 10 µM in the experiment with HTT CJ mRNA; 1 to 10 µM in the experiment on HTT mRNA. Also, the AC50 in the experiment on MYB mRNA is 1 to 10 µM; in the experiment on HTT mRNA it was over 10 µM.
For `Cc1cn2cc(-c3nn4c(=O)cc(N(C)C5CC(C)(C)NC(C)(C)C5)nc4s3)cc(F)c2n1` [Compound 215, 2-(8-fluoro-2-methylimidazo[1,2-a]pyridin-6-yl)-7-(methyl(2,2,6,6-tetramethylpiperidin-4-yl)amino)-5H-[1,3,4]thiadiazolo[3,2-a]pyrimidin-5-one], the IC50 with SMN2 CJ mRNA lay within 0.1 to 1 µM; in the experiment with Target C CJ mRNA, 1 to 10 µM; in the experiment on MYB mRNA, 1 to 10 µM; in the experiment on HTT CJ mRNA, 1 to 10 µM; in the experiment on HTT mRNA, 1 to 10 µM. The AC50 in the experiment with MYB mRNA and in the experiment on HTT mRNA was 1 to 10 µM throughout.
Regarding `Cc1cn2cc(-c3nn4c(=O)cc(N5CCNC6(CC6)C5)nc4s3)cc(F)c2n1` [Compound 216, 2-(8-fluoro-2-methylimidazo[1,2-a]pyridin-6-yl)-7-(4,7-diazaspiro[2.5]octan-7-yl)-5H-[1,3,4]thiadiazolo[3,2-a]pyrimidin-5-one], the IC50 in the experiment on SMN2 CJ mRNA, in the experiment on Target C CJ mRNA, in the experiment with MYB mRNA, in the experiment on HTT CJ mRNA and in the experiment with HTT mRNA was 1 to 10 µM throughout. Besides, the AC50 in the experiment on MYB mRNA and in the experiment on HTT mRNA was 1 to 10 µM throughout.
For the compound `Cc1cn2cc(-c3nn4c(=O)cc(N5CCN(C)CC5)nc4s3)cc(F)c2n1` [Compound 217, 2-(8-fluoro-2-methylimidazo[1,2-a]pyridin-6-yl)-7-(4-methylpiperazin-1-yl)-5H-[1,3,4]thiadiazolo[3,2-a]pyrimidin-5-one], the IC50 in the experiment with SMN2 CJ mRNA, with Target C CJ mRNA, in the experiment with MYB mRNA, with HTT CJ mRNA and in the experiment on HTT mRNA was 1 to 10 µM throughout. Further, the AC50 in the experiment with MYB mRNA and in the experiment with HTT mRNA was 1 to 10 µM throughout.

The term IC50 denotes the midpoint of a concentration-inhibition curve. In general, AC50 refers to the concentration giving half of the maximal activity seen.
